Several values for one entry are separate records, joined by “and”; a condition that tells them apart may be missing. Identical values can stand only once.
Tests used:
Assay in all cases: radiometric filter-binding kinase assay, Kinase HotSpot
Conditions in all cases: compound 0.5 µM; ATP 10 µM
[1] = molecular target: AURKA (human) (UniProt O14965)
[2] = molecular target: BMX (human) (UniProt P51813)
[3] = molecular target: BTK (human) (UniProt Q06187)
[4] = molecular target: CDK6 CCND3 (human) (UniProt P30281+Q00534)
CDK6 CCND3 (human), sequence (P30281 whole entry, looked up): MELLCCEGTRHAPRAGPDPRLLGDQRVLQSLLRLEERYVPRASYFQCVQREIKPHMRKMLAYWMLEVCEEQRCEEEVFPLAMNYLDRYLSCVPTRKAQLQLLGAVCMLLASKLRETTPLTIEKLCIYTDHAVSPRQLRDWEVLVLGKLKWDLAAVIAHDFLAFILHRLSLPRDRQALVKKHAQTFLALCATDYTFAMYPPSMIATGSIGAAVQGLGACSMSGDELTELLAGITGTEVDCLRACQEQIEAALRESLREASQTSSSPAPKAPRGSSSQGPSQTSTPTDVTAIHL
CDK6 CCND3 (human), sequence (Q00534 whole entry, looked up): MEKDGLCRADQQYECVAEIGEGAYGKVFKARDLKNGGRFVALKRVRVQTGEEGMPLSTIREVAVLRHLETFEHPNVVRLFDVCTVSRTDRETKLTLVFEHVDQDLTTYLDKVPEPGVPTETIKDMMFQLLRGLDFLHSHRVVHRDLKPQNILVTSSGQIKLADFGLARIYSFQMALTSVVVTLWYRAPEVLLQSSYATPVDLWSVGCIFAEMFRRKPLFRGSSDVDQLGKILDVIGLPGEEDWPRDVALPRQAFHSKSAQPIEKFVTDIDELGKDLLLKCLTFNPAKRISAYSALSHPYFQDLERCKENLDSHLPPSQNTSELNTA

[5] = molecular target: CHEK2 (human) (UniProt O96017)
[6] = molecular target: CSK (human) (UniProt P41240)
[7] = molecular target: CSNK2A1 (human) (UniProt P68400)
[8] = molecular target: DAPK3 (human) (UniProt O43293)
[9] = molecular target: DMPK (human) (UniProt Q09013)
[10] = molecular target: DYRK2 (human) (UniProt Q92630)
[11] = molecular target: EPHA5 (human) (UniProt P54756)
[12] = molecular target: EPHB4 (human) (UniProt P54760)
EPHB4 (human), sequence (P54760 whole entry, looked up): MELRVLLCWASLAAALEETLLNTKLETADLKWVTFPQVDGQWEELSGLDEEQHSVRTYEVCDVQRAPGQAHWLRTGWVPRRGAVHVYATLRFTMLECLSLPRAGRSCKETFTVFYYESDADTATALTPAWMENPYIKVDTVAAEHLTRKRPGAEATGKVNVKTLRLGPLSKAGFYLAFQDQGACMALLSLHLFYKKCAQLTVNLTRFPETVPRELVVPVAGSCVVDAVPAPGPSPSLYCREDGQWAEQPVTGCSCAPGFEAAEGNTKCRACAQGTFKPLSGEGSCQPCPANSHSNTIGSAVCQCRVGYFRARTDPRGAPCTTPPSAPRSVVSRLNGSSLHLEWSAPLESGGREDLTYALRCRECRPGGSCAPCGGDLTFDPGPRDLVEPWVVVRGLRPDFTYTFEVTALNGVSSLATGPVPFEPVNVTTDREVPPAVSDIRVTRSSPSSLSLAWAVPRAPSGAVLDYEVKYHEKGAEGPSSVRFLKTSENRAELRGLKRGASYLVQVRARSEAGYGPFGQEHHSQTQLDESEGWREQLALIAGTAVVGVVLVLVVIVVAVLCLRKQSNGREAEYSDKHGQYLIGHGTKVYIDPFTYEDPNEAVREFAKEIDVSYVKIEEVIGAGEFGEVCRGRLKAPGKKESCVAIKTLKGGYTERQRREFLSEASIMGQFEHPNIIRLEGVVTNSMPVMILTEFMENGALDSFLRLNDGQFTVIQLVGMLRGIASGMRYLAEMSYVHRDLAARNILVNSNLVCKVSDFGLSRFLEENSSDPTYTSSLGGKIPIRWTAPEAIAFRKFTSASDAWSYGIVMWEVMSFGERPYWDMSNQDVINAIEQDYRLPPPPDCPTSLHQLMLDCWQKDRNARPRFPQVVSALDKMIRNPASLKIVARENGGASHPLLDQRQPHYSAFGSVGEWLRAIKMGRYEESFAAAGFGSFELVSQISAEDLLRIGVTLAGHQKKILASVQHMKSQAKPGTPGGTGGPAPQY

[13] = molecular target: FER (human) (UniProt P16591)
[14] = molecular target: FGFR2 (human) (UniProt P21802)
[15] = molecular target: FGFR4 (human) (UniProt P22455)
[16] = molecular target: GRK4 (human) (UniProt P32298)
[17] = molecular target: GRK7 (human) (UniProt Q8WTQ7)
[18] = molecular target: GSK3B (human) (UniProt P49841)
[19] = molecular target: HIPK1 (human) (UniProt Q86Z02)
[20] = molecular target: IRAK4 (human) (UniProt Q9NWZ3)
[21] = molecular target: JAK3 JH1 JH2 (human) (UniProt P52333)
[22] = molecular target: LYN (human) (UniProt P07948)
LYN (human), sequence (P07948 whole entry, looked up): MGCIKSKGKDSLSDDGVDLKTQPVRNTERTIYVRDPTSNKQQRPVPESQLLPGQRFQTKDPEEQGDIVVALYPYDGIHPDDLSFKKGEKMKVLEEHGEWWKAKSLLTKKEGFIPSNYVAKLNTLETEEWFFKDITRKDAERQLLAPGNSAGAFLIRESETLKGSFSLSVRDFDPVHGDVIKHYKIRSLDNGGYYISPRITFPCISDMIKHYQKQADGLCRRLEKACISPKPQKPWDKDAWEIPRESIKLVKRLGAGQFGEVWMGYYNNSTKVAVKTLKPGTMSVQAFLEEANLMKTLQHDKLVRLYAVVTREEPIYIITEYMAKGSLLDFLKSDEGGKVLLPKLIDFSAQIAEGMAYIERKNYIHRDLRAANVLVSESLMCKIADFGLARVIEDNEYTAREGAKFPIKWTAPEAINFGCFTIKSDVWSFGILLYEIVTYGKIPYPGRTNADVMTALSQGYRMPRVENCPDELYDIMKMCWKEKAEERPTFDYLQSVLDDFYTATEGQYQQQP

[23] = molecular target: MAP3K8 (human) (UniProt P41279)
[24] = molecular target: MAPK12 (human) (UniProt P53778)
[25] = molecular target: MARK2 (human) (UniProt Q7KZI7)
[26] = molecular target: MLTK (human) (UniProt Q9NYL2)
[27] = molecular target: MST1R (human) (UniProt Q04912)
[28] = molecular target: MYLK (human) (UniProt Q15746)
[29] = molecular target: NEK3 (human) (UniProt P51956)
[30] = molecular target: PKN1 (human) (UniProt Q16512)
[31] = molecular target: PLK1 (human) (UniProt P53350)
[32] = molecular target: PNCK (human) (UniProt Q6P2M8)
[33] = molecular target: PRKG1 (human) (UniProt Q13976)
PRKG1 (human), sequence (Q13976 whole entry, looked up): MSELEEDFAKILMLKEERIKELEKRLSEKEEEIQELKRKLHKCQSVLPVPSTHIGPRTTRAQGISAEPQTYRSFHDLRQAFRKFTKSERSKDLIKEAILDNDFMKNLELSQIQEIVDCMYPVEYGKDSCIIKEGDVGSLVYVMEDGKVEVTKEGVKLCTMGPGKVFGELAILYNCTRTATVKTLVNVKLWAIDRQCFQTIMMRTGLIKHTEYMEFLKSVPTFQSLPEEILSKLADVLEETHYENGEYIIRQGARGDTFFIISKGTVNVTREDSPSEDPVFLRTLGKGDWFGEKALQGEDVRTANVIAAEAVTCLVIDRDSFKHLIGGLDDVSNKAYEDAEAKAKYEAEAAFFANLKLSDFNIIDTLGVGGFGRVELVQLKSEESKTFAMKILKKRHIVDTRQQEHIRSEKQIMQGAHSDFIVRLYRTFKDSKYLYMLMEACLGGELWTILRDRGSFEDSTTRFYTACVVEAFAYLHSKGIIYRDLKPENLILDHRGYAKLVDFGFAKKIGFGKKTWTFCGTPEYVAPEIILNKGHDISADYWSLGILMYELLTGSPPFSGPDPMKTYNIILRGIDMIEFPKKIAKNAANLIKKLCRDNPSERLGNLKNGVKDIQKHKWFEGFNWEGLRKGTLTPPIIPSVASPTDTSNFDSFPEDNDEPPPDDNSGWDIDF

[34] = molecular target: RPS6KA2 KD1 KD2 (human) (UniProt Q15349)
[35] = molecular target: RPS6KA4 KD2 (human) (UniProt O75676)
RPS6KA4 KD2 (human), sequence (O75676 whole entry, looked up): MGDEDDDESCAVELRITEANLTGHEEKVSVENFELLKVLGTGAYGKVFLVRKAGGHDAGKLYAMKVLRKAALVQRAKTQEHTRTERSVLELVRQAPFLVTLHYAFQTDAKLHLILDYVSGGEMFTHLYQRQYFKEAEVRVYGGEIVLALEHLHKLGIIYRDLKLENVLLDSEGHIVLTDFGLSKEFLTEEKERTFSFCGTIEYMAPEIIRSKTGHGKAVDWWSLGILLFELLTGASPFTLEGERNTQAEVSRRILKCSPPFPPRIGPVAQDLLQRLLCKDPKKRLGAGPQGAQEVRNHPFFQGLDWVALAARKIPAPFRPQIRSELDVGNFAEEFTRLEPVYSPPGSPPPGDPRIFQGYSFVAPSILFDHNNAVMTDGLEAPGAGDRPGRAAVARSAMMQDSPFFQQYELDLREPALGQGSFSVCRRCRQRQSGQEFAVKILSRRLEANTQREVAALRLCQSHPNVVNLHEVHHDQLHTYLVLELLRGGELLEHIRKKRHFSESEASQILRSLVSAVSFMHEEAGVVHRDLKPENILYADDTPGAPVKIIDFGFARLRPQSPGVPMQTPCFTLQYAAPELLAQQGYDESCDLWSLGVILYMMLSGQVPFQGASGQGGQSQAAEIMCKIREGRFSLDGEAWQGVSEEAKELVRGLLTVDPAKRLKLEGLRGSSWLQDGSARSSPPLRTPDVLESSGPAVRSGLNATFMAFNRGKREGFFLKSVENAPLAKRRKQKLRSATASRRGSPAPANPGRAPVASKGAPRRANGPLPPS

[36] = molecular target: SGK2 (human) (UniProt Q9HBY8)
[37] = molecular target: SRC (human) (UniProt P12931)
[38] = molecular target: STK10 (human) (UniProt O94804)
[39] = molecular target: STK3 (human) (UniProt Q13188)
[40] = molecular target: TLK2 (human) (UniProt Q86UE8)
[41] = molecular target: TYRO3 (human) (UniProt Q06418)
[42] = molecular target: ULK3 (human) (UniProt Q6PHR2)
ULK3 (human), sequence (Q6PHR2 whole entry, looked up): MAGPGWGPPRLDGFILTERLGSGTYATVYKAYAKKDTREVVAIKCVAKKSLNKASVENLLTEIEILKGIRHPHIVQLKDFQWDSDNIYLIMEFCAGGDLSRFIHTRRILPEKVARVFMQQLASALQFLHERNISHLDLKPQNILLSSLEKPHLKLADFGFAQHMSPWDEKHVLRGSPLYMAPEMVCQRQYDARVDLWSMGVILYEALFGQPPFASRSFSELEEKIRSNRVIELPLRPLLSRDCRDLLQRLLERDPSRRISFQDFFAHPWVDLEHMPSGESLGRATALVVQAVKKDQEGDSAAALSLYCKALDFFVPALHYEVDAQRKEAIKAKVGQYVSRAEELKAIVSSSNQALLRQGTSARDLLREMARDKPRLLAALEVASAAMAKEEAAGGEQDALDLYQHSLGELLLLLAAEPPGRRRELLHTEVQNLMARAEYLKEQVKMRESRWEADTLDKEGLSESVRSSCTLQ

BTK (human), sequence (Q06187 whole entry, looked up): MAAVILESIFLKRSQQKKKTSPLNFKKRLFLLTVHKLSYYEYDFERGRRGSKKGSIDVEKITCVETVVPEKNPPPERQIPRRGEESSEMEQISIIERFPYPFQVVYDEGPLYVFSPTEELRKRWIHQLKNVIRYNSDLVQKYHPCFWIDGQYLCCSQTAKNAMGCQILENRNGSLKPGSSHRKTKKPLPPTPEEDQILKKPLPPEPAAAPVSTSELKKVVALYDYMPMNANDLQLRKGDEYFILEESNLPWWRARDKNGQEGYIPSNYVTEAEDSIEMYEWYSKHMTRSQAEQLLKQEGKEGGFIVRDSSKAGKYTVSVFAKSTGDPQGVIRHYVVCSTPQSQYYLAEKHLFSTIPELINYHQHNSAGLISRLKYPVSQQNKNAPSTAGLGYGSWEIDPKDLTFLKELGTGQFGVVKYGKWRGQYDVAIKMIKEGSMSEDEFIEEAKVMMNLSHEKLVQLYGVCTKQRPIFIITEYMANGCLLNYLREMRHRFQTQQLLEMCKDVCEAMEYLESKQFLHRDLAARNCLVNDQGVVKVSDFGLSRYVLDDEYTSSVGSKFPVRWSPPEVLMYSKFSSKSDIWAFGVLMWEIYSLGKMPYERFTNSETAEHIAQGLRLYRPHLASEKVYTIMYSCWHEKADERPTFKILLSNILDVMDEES

Compound `N#CC(C#N)=C(N)/C(C#N)=C/c1ccc(O)cc1` has a residual activity [1] of 89.6%, a residual activity [2] of 80% and a residual activity [3] of 99.7%. It also gave a residual activity [4] of 100%, a residual activity [5] of 95.5% and a residual activity [6] of 97.6%. For the same compound, the residual activity [7] was 104%, the residual activity [8] was 91.1% and the residual activity [9] was 101%. It also gave a residual activity [10] of 117%, a residual activity [11] of 94.3% and a residual activity [12] of 88.1%. It also gave a residual activity [13] of 91.1%, a residual activity [14] of 102% and a residual activity [15] of 91.1%. It also gave a residual activity [16] of 99.6%, a residual activity [17] of 104% and a residual activity [18] of 89.5%. The residual activity [19] was 103%, the residual activity [20] was 92.6% and the residual activity [21] was 102%. For the same compound, the residual activity [22] was 102% and 92.2%, the residual activity [23] was 96% and the residual activity [24] was 92.6%. The residual activity [25] was 91.3%, the residual activity [26] was 95.7% and the residual activity [27] was 102%. The residual activity [28] was 101%, the residual activity [29] was 98% and the residual activity [30] was 89%. For the same compound, the residual activity [31] was 60.8%, the residual activity [32] was 97.3% and the residual activity [33] was 89.5% and 91.3%. The residual activity [34] was 96.2%, the residual activity [35] was 99.7% and the residual activity [36] was 110%. For the same compound, the residual activity [37] was 92.3%, the residual activity [38] was 92.4% and the residual activity [39] was 95.2%. It also gave a residual activity [40] of 89.4%, a residual activity [41] of 99.3% and a residual activity [42] of 67.8%.
In the case of `CCOC(=O)c1c(C)[nH]c(/C=C2\C(=O)Nc3ccccc32)c1C`, the residual activity [1] is reported as 90.4%, the residual activity [2] is reported as 93.5% and the residual activity [3] is reported as 95.6%. The residual activity [4] was 84.7%, the residual activity [5] was 70.5% and the residual activity [6] was 104%. For the same compound, the residual activity [7] was 114%, the residual activity [8] was 85.1% and the residual activity [9] was 101%. For the same compound, the residual activity [10] was 92.4%, the residual activity [11] was 91.9% and the residual activity [12] was 89.5%. It also gave a residual activity [13] of 72.5%, a residual activity [14] of 97.9% and a residual activity [15] of 82.4%. The residual activity [16] was 82.9%, the residual activity [17] was 86.3% and the residual activity [18] was 105%. For the same compound, the residual activity [19] was 97.3%, the residual activity [20] was 96.8% and the residual activity [21] was 69.1%. The residual activity [22] was 84.1% and 98.4%, the residual activity [23] was 108% and the residual activity [24] was 101%. For the same compound, the residual activity [25] was 87.6%, the residual activity [26] was 92.7% and the residual activity [27] was 87.5%. It also gave a residual activity [28] of 94.8%, a residual activity [29] of 101% and a residual activity [30] of 89.6%. For the same compound, the residual activity [31] was 107%, the residual activity [32] was 88.6% and the residual activity [33] was 78.3% and 92.8%. For the same compound, the residual activity [34] was 71.4%, the residual activity [35] was 87% and the residual activity [36] was 93.7%. The residual activity [37] was 93.8%, the residual activity [38] was 82.2% and the residual activity [39] was 73.7%. It also gave a residual activity [40] of 96.5%, a residual activity [41] of 96.9% and a residual activity [42] of 76.7%.
